Results on one compound are retold here after patent publication US10799501B2, “Combination of an inhibitor of PARP with an inhibitor of GSK-3 or DOT1L” (King's College London, priority 2015, dated 2020).

Experiment [1] relates to AML1-ETO transformed cells. Briefly: In vitro drug treatment of primary murine hematopoietic cells transformed by AML1-ETO (RTTA). The experiment is classed as cell-based, mouse. On the procedure:
Transduction using concentrated viral supernatant expressing the oncogene of interest was carried out by centrifugation (spinoculation) at 800 g at 32° C. for 2 hours in the presence of 5 μg ml^-1 polybrene (Sigma-Aldrich). Cells were subsequently plated in 1% methylcellulose medium ([…]; Stem Cell Technologies) containing 20 ngml^-1 SCF, 10 ngml^-1 IL-3, 10 ngml^-1 IL-6 and 10 ngml^-1 granulocyte macrophage colony-stimulating factor (GM-CSF) and appropriate selection antibiotic. Colonies were counted after 7 days of culture and replated every 6-7 days at 5×103-1.5×10^4 cell density. Re-plating was performed weekly to generate primary cell lines for further analysis. After the third or fourth round of plating, cells were cultured in R20/20 medium (RPMI 1640, 20% FCS, 20% WEHI-conditioned medium, 2 mM L-glutamine, 100 U/ml penicillin, and 100 μg/ml streptomycin) supplemented with 20 ngml^-1 stem cell factor (SCF), 10 ngml^-1 interleukin (IL)-3, and 10 ngml^-1 IL-6 to establish cell lines. All recombinant murine cytokines were from PeprotechEC. […] Colonies were scored 6-7 days after plating. For other in vitro studies, mouse leukemic cells and primary AML cell lines were subjected to continuously Olaparib (1 μM) or LiCl (8 mM) treatment in liquid culture for whole duration as indicated in the figures or figure legends. For human leukemic cell lines, experiments were performed as described above with 5 μM Olaparib. Cells were cytospun onto a glass slide at 400 g for 5 minutes and then fixed for 10 minutes with 2% formaldehyde/0.2% glutaraldehyde (Sigma Aldrich). Cells were then washed with PBS, and then incubated at 37° C. for at least 2 hours with a staining solution (30 mM Citric Acid/Phosphate buffer, 5 mM K4Fe(CN)6, 5 mM K3Fe(CN)6, 150 mM NaCl, 2 mM MgCl2, 1 mg/ml X-Gal) (All reagents from Sigma-Aldrich)62. Cells were counted in at least 5 fields for each slide, for a total of over 100 cells. The percentage of senescent cells was calculated by the percentage of the number of blue cell in the field. Cells were cytospun onto a glass slide at 400 g for 5 minutes and then fixed for 30 minutes in 4% PFA and permeabilized and blocked in 0.8% Tx-100, 10% FBS/1% BSA (Sigma-Aldrich) in PBS for 15 min at room temperature. Mouse anti mouse γH2AX ([…]) (Upstate clone JBW301#05-636) and rabbit anti mouse RAD51 (Santa Cruz Biotecnology […]# sc-8349) were diluted in TBS containing 10% FBS/1% BSA and incubated overnight at 4C. […] Slides were then washed five times at 10 min each with PBS. Slides were briefly washed in water and air-dried prior to mounting with Mowiol-DABCO and a coverslip. Cells were counted in at least 5 fields for each slide, for a total of over 100 cells per condition. 1×10^5 cells were cytospun for 5 min at 300 g onto glass slides. Slides were then stained with May-Grunwald solution (Sigma-Aldrich) for 3 min at room temperature. After washing in water, they were incubated for 20 min in Giemsa solution (Sigma-Aldrich) (1:20 in water). Slides were washed again in water before being mounted with Mowiol. Cells were counted in at least 5 fields for each slide, for a total of over 100 cells per condition. NBT reduction assay were performed to determine myeloid differentiation. […] Cells were then washed in PBS and the differentiated cells were indicated by the deposition of dark blue insoluble formazan (NBT positive cells) and the percentage of differentiated cells were counted under microscopy. At least 200 cells were counted in most of the cases.

Experiment [2] deals with Kasumi (AML1-ETO). Briefly: In vitro PARPi treatment of human leukemic cell line Kasumi. In kind it is cell-based. On the procedure:
NB4-LR2 and THP1 cell lines (kindly provided by Dr Arthur Zelent and Professor Mel Greaves respectively) were cultured in RPMI (Invitrogen) supplemented with 10% selected FBS (R10), 2 mM L-Glutamine. Kasumi cell line (kindly provided by Dr Olaf Heidenreich) was cultured in RPMI-Hepes modified (Sigma) supplemented with 20% selected FBS and 2 mM L-[…]). Cell lines were validated by qPCR for their respective oncogenes. NIH3T3 and GP2 cell line was cultured in DMEM (Invitrogen) supplemented with 10% selected FBS and 2 mM L-Glutamine. Human primary AML cells were cultured in IMEM (Invitrogen) supplemented with […], 2 mM L-Glutamine, 10 ng/mL each of human cytokines, IL3, IL6, SCF, FLT3 ligand, and TPO. Cells were kept at 37° C. and 5% CO2. Use of human primary cells was approved by King's College London committee and consents of the patients were obtained. […] Colonies were scored 6-7 days after plating. […] Samples were then washed in PBS analysed at the FACS LSRII (BD Biosciences Pharmingen) with FACS Diva. […] Cells were counted in at least 5 fields for each slide, for a total of over 100 cells. The percentage of senescent cells was calculated by the percentage of the number of blue cell in the field.

For the compound `O=C(c1cc(Cc2n[nH]c(=O)c3ccccc23)ccc1F)N1CCN(C(=O)C2CC2)CC1` [Olaparib, 4-[(3-[(4-cyclopropylcarbonyl)piperazin-4-yl]carbonyl)-4-fluorophenyl]methyl(2H)-phthalazin-1-one], the “suppression of colony forming ability” value in experiment [1] (1 uM Olaparib, methylcellulose 7 days, p<0.001) is reported as “about 90%”. The “senescence (β-galactosidase staining)” value in experiment [1] (PARPi 24 hrs and 48 hrs) was “underwent significant senescence”. Moreover, the “Rad51 recruitment to DNA damage sites (RAD51 foci)” value in experiment [1] (PARPi treatment for 6 hours) is “no significant Rad51 recruitment”. The “percentage of differentiation (morphology and NBT reduction)” value in experiment [1] (time course PARPi treatment) is “significantly increased the percentage of differentiation”. For the same compound, in experiment [1] (upon PARPi treatment), the “cells with γH2AX and Rad51 foci ratio greater than 2” value was “around 80%”. The senescence and apoptosis entry in experiment [2] (PARPi 72 hrs / 4 days) was “effectively induce senescence and apoptosis”. Also, the colony forming ability entry in experiment [2] (methylcellulose 7 days, 5 μM Olaparib) was “reduced the colony forming ability”.
